According to PubChem BioAssay AID1963865 (Molecular Pharmacology Branch, DTP, NCI, 2024):

Test system: KRAS PDC multicell spheroid viability
Test: Anticancer human tumor 825966-067-R-J1-PDC patient-derived colon carcinoma cell line growth inhibition [KRAS2]
Conditions: for IC50: curve of first compound; for viability, T/C: stronger effect = lower value
Source text: Multicellular complex tumor spheroid response to RAS pathway inhibitors in combination with a targeted agents in patient-derived cell lines with oncogenic KRAS variants from multiple cancer types
A high-throughput screen of multi-cell type tumor spheroids was designed to identify active combinations of targeted small molecules and KRAS pathway inhibitors. Complex spheroids include a stromal component modeled by human endothelial cells (HUVEC) and fibroblasts modeled by human mesenchymal stem cells (MSCs). The concentration ranges selected for each drug and investigational agent were based upon clinically achievable concentrations if the clinical Cmax of the agent was known.
Compounds. The drugs and investigational agents: BI-3406 (NSC825286), BAY-293 (NSC824723), batoprotafib (TNO155; NSC825523), sotorasib (AMG 510; NSC818433), MRTX1257 (NSC819558), elimusertib (BAY 1895344; NSC800525), molibresib (GSK525762; NSC774829), temuterkib (LY3214996; NSC803410), venetoclax (NSC766270), alisertib (NSC759677), olaparib (NSC753686), talazoparib (NSC767125), erdafitinib (NSC781556), ipatasertib (NSC767898), cabozantinib (NSC761068), nintedanib (NSC756659), abemaciclib (NSC768073), docetaxel (NSC628503), trametinib (NSC758246), and sapanisertib (NSC764658) were obtained from the National Cancer Institute (NCI) Developmental Therapeutics Program Chemical Repository. The FDA-approved anticancer drug set is available from the Developmental Therapeutics Program. […] The stock solutions were prepared in dimethyl sulfoxide (DMSO, Sigma-Aldrich, St. Louis, MO, cat. D2650) at 800-fold the tested concentration and stored at -70 degrees C prior to their use. All drugs and investigational agents were tested over a range starting from a high concentration at or near the clinical Cmax and decreasing in half-log increments. If the clinical Cmax for an agent had not been determined, the highest concentration tested was 10 microM.
Cell Culture. All cells were maintained in an incubator at 37 degrees C and 5% CO2 with 95% humidity. The PDC lines were cultured according to standard operating procedures established by the NCI PDMR (https://pdmr.cancer.gov/sops/default.htm). Briefly, all PDCs were thawed and cultured in Matrigel-coated flasks prepared with a working solution of 1X Ham's F-12 nutrient mix, without supplementation (Invitrogen, Waltham, MA, cat. 11765054), 100 U/mL penicillin-streptomycin (Invitrogen, cat. 15140122), and 2.5% Matrigel (Corning Inc., Corning, NY, cat. 354248) for the first three passages. All PDCs were cultured in complete DMEM/F-12 media containing advanced DMEM/F-12 (Invitrogen, cat. 12634028), 4.9% defined fetal bovine serum, heat inactivated (HyClone Laboratories Inc., Logan, UT, cat. SH30070.03HI), 389 ng/mL hydrocortisone (Sigma-Aldrich, cat. H4001), 9.7 ng/mL human EGF recombinant protein (Invitrogen, cat. PHG0313), 23.4 microg/mL adenine (Sigma-Aldrich, cat. A2786), 97.3 U/mL penicillin-streptomycin (Invitrogen, cat. 15140122), 1.9 mM L-glutamine (Invitrogen, cat. 25030081), and 9.7 microM Y-27632 dihydrochloride (Tocris Bioscience, Bristol, United Kingdom, cat. 1254). The PDCs were cultured in complete DMEM/F12 media without 9.7 microM Y-27632 dihydrochloride for at least two passages prior to the screen. The established cell line HOP-62 was cultured in RPMI 1640 medium, HEPES (Invitrogen, cat. 22400105) with 10% defined fetal bovine serum (HyClone Laboratories Inc., cat. SH30070.03) and 2 mM L-glutamine (Invitrogen, cat. 25030081). The pooled donor HUVEC were cultured in endothelial cell growth medium 2 (PromoCell, Heidelberg, Germany, cat. C-22011) and the hMSC were cultured in mesenchymal stem cell growth medium 2 (PromoCell, cat. C-28009). For all experiments, HUVEC and hMSC were used at passages </=5, while the malignant cell lines were used at passages </=15. […]

[1] = second compound 0.1 µM, first compound 0.000316 µM
[2] = second compound 0.1 µM, first compound 0.001 µM
[3] = second compound 0.1 µM, first compound 0.00316 µM
[4] = second compound 0.1 µM, first compound 0.01 µM
[5] = second compound 0.1 µM, first compound 0.0316 µM
[6] = second compound 0.316 µM, first compound 0.000316 µM
[7] = second compound 0.316 µM, first compound 0.001 µM
[8] = second compound 0.316 µM, first compound 0.00316 µM
[9] = second compound 0.316 µM, first compound 0.01 µM
[10] = second compound 0.316 µM, first compound 0.0316 µM
[11] = second compound 1 µM, first compound 0.000316 µM
[12] = second compound 1 µM, first compound 0.001 µM
[13] = second compound 1 µM, first compound 0.00316 µM
[14] = second compound 1 µM, first compound 0.01 µM
[15] = second compound 1 µM, first compound 0.0316 µM
[16] = second compound 3.16 µM, first compound 0.000316 µM
[17] = second compound 3.16 µM, first compound 0.001 µM
[18] = second compound 3.16 µM, first compound 0.00316 µM
[19] = second compound 3.16 µM, first compound 0.01 µM
[20] = second compound 3.16 µM, first compound 0.0316 µM
[21] = second compound 10 µM, first compound 0.000316 µM
[22] = second compound 10 µM, first compound 0.001 µM
[23] = second compound 10 µM, first compound 0.00316 µM
[24] = second compound 10 µM, first compound 0.01 µM
[25] = second compound 10 µM, first compound 0.0316 µM
[26] = second compound 0.1 µM, first compound 0.1 µM
[27] = second compound 0.316 µM, first compound 0.1 µM
[28] = second compound 1 µM, first compound 0.1 µM
[29] = second compound 3.16 µM, first compound 0.1 µM
[30] = second compound 10 µM, first compound 0.1 µM
[31] = second compound 0.1 µM, first compound 0.316 µM
[32] = second compound 0.1 µM, first compound 1 µM
[33] = second compound 0.1 µM, first compound 3.16 µM
[34] = second compound 0.1 µM, first compound 10 µM
[35] = second compound 0.316 µM, first compound 0.316 µM
[36] = second compound 0.316 µM, first compound 1 µM
[37] = second compound 0.316 µM, first compound 3.16 µM
[38] = second compound 0.316 µM, first compound 10 µM
[39] = second compound 1 µM, first compound 0.316 µM
[40] = second compound 1 µM, first compound 1 µM
[41] = second compound 1 µM, first compound 3.16 µM
[42] = second compound 1 µM, first compound 10 µM
[43] = second compound 3.16 µM, first compound 0.316 µM
[44] = second compound 3.16 µM, first compound 1 µM
[45] = second compound 3.16 µM, first compound 3.16 µM
[46] = second compound 3.16 µM, first compound 10 µM
[47] = second compound 10 µM, first compound 0.316 µM
[48] = second compound 10 µM, first compound 1 µM
[49] = second compound 10 µM, first compound 3.16 µM
[50] = second compound 10 µM, first compound 10 µM
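Further: spheroids exposed to compounds for 7 days.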
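Wherever viability, T/C is given: 100% = DMSO vehicle control viability.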

CC(=O)Nc1cccc(-n2c(=O)n(C3CC3)c(=O)c3c(Nc4ccc(I)cc4F)n(C)c(=O)c(C)c32)c1 + C=CC(=O)N1CCN(c2nc(=O)n(-c3c(C)ccnc3C(C)C)c3nc(-c4c(O)cccc4F)c(F)cc23)C(C)C1
IC50 (second compound 0.1 µM): 17 nM | IC50 (second compound 0.316 µM): 22.8 nM | IC50 (second compound 1 µM): > 31.6 nM | IC50 (second compound 3.16 µM): 27.5 nM | IC50 (second compound 10 µM): 14.1 nM | viability, T/C (second compound 0.1 µM, first compound 0.0001 µM): 91.9% | viability, T/C [1]: 84.9% | viability, T/C [2]: 99.5% | viability, T/C [3]: 128% | viability, T/C [4]: 72.5% | viability, T/C [5]: 23.7% | viability, T/C (second compound 0.316 µM, first compound 0.0001 µM): 84.8% | viability, T/C [6]: 82.7% | viability, T/C [7]: 111% | viability, T/C [8]: 129% | viability, T/C [9]: 95.6% | viability, T/C [10]: 31.8% | viability, T/C (second compound 1 µM, first compound 0.0001 µM): 92.2% | viability, T/C [11]: 89.4% | viability, T/C [12]: 99.8% | viability, T/C [13]: 114% | viability, T/C [14]: 102% | viability, T/C [15]: 52.5% | viability, T/C (second compound 3.16 µM, first compound 0.0001 µM): 72.2% | viability, T/C [16]: 97.7% | viability, T/C [17]: 95.4% | viability, T/C [18]: 97.3% | viability, T/C [19]: 80.2% | viability, T/C [20]: 45.9% | viability, T/C (second compound 10 µM, first compound 0.0001 µM): 81.3% | viability, T/C [21]: 89.5% | viability, T/C [22]: 77.3% | viability, T/C [23]: 101% | viability, T/C [24]: 55.2% | viability, T/C [25]: 37.6%

CC(C)n1nc(-c2ccc3oc(N)nc3c2)c2c(N)ncnc21 + C=CC(=O)N1CCN(c2nc(=O)n(-c3c(C)ccnc3C(C)C)c3nc(-c4c(O)cccc4F)c(F)cc23)C(C)C1
IC50 (second compound 0.1 µM): > 100 nM | IC50 (second compound 0.316 µM): > 100 nM | IC50 (second compound 1 µM): > 100 nM | IC50 (second compound 3.16 µM): > 100 nM | IC50 (second compound 10 µM): > 100 nM | viability, T/C [1]: 113% | viability, T/C [2]: 116% | viability, T/C [3]: 114% | viability, T/C [4]: 147% | viability, T/C [5]: 130% | viability, T/C [26]: 142% | viability, T/C [6]: 112% | viability, T/C [7]: 96.7% | viability, T/C [8]: 118% | viability, T/C [9]: 130% | viability, T/C [10]: 154% | viability, T/C [27]: 101% | viability, T/C [11]: 106% | viability, T/C [12]: 102% | viability, T/C [13]: 129% | viability, T/C [14]: 138% | viability, T/C [15]: 89.9% | viability, T/C [28]: 107% | viability, T/C [16]: 103% | viability, T/C [17]: 99.5% | viability, T/C [18]: 103% | viability, T/C [19]: 119% | viability, T/C [20]: 114% | viability, T/C [29]: 114% | viability, T/C [21]: 89.6% | viability, T/C [22]: 94.7% | viability, T/C [23]: 106% | viability, T/C [24]: 93.5% | viability, T/C [25]: 79.4% | viability, T/C [30]: 76.5%

COc1cc(Nc2ncc3c(n2)-c2ccc(Cl)cc2C(c2c(F)cccc2OC)=NC3)ccc1C(=O)O + C=CC(=O)N1CCN(c2nc(=O)n(-c3c(C)ccnc3C(C)C)c3nc(-c4c(O)cccc4F)c(F)cc23)C(C)C1
IC50 (second compound 0.1 µM): > 10000 nM | IC50 (second compound 0.316 µM): > 10000 nM | IC50 (second compound 1 µM): > 10000 nM | IC50 (second compound 3.16 µM): > 10000 nM | IC50 (second compound 10 µM): > 10000 nM | viability, T/C [5]: 144% | viability, T/C [26]: 117% | viability, T/C [31]: 141% | viability, T/C [32]: 140% | viability, T/C [33]: 138% | viability, T/C [34]: 133% | viability, T/C [10]: 116% | viability, T/C [27]: 107% | viability, T/C [35]: 135% | viability, T/C [36]: 140% | viability, T/C [37]: 154% | viability, T/C [38]: 134% | viability, T/C [15]: 88.9% | viability, T/C [28]: 107% | viability, T/C [39]: 96% | viability, T/C [40]: 127% | viability, T/C [41]: 123% | viability, T/C [42]: 118% | viability, T/C [20]: 104% | viability, T/C [29]: 93.5% | viability, T/C [43]: 142% | viability, T/C [44]: 118% | viability, T/C [45]: 144% | viability, T/C [46]: 103% | viability, T/C [25]: 83.3% | viability, T/C [30]: 66% | viability, T/C [47]: 97.7% | viability, T/C [48]: 79.5% | viability, T/C [49]: 116% | viability, T/C [50]: 90.5%

COc1cc2nccc(Oc3ccc(NC(=O)C4(C(=O)Nc5ccc(F)cc5)CC4)cc3)c2cc1OC + C=CC(=O)N1CCN(c2nc(=O)n(-c3c(C)ccnc3C(C)C)c3nc(-c4c(O)cccc4F)c(F)cc23)C(C)C1
IC50 (second compound 0.1 µM): 1730 nM | IC50 (second compound 0.316 µM): 1590 nM | IC50 (second compound 1 µM): 1690 nM | IC50 (second compound 3.16 µM): 1520 nM | IC50 (second compound 10 µM): 461 nM | viability, T/C [5]: 108% | viability, T/C [26]: 111% | viability, T/C [31]: 81.8% | viability, T/C [32]: 88.8% | viability, T/C [33]: 6.77% | viability, T/C [34]: 8.36% | viability, T/C [10]: 91.1% | viability, T/C [27]: 122% | viability, T/C [35]: 71.7% | viability, T/C [36]: 78.3% | viability, T/C [37]: 6.54% | viability, T/C [38]: 10.2% | viability, T/C [15]: 111% | viability, T/C [28]: 118% | viability, T/C [39]: 85.8% | viability, T/C [40]: 87.5% | viability, T/C [41]: 2.49% | viability, T/C [42]: 8.75% | viability, T/C [20]: 88.4% | viability, T/C [29]: 77% | viability, T/C [43]: 90% | viability, T/C [44]: 76.1% | viability, T/C [45]: 2.99% | viability, T/C [46]: 6.07% | viability, T/C [25]: 97.4% | viability, T/C [30]: 78.5% | viability, T/C [47]: 56.1% | viability, T/C [48]: 41.7% | viability, T/C [49]: 2% | viability, T/C [50]: 2.5%
